From publication PMC6332318, “Synthetic Development of New 3-(4-Arylmethylamino)butyl-5-arylidene-rhodanines under Microwave Irradiation and Their Effects on Tumor Cell Lines and against Protein Kinases” (Molecules, 2015)

Experiments:
HaCat keratinocyte = experiment: in vitro inhibition of cell proliferation / survival assay; format: cell-based; conditions: for IC50: 48 h, average of three assays, standard error ± 0.5 μM; for viability at 25 µM: measured at 25 μM after 48 h, single dose, triplicate
Description: (§1) As an initial effort to investigate their in vitro bioactivity, the new synthesized 3-(4-arylmethylamino)butyl-2-thioxo-1,3-thiazolidine-4-one 9a–n and also their precursors 6a–f were evaluated for their in vitro inhibition of cell proliferation. For this study, we used a panel of seven representative tumoral cell lines, namely HuH7 D12 (differential hepato cellular carcinoma), Caco 2 (differentiating colorectal adenocarcinoma), MDA-MBD231 ([…]), HCT 116 (actively proliferating colorectal adenocarcinoma), PC3 (prostate carcinoma), NCI-H727 (lung carcinoma), HaCat keratinocyte and, diploid skin fibroblasts as normal cell lines for control.
(§2) Skin diploid fibroblastic cells were provided by BIOPREDIC International Company (Rennes, France). Caco2 (Ref ECACC: 86010202), Huh-7D12 (Ref ECACC: 01042712), MDA-MB-231 (Ref ECACC: 92020424), HCT-116 (Ref ECACC: 91091005), PC3 (Ref ECACC: 90112714), NCI-H727 (Ref ECACC: 94060303) cell lines were obtained from the ECACC collection and HaCaT (from Cell Lines Service, Eppelheim, Germany). Cells were grown according to ECACC recommendations. The toxicity test of the compounds on these cells was as follows: 2 × 10^3 cells for HCT-116 cells or 4 × 10^3 for the other cells were seeded in 96 multiwell plates in triplicate and left for 24 h for attachment, spreading and growing. Then, cells were exposed for 48 h to increasing concentrations of the compounds, ranging from 0.1 to 25 μM in a final volume of 120 μL of culture medium. Cells were fixed in cooled solution of 90% ethanol/5% acetic acid, nuclei were stained with Hoechst 3342 (Sigma) and counted using automated imaging analysis (Cellomics Arrayscan VTI/HCS Reader, Thermo/Scientific, Waltham, MA, USA). The IC50 were graphically determined.

[1] = test system: PC3 cells (prostate carcinoma); experiment: as above; format: cell-based; conditions: Homo sapiens; for IC50: PC-3, 48 h, average of three assays, standard error ± 0.5 μM; for viability at 25 µM: PC-3, measured at 25 μM after 48 h, single dose, triplicate
Description: as §1, §2

MDA-MB231 cells = experiment: as above; format: cell-based; conditions: Homo sapiens; for IC50: MDA-MB-231, 48 h, average of three assays, standard error ± 0.5 μM; for viability at 25 µM: MDA-MB-231, measured at 25 μM after 48 h, single dose, triplicate
Description: as §1, §2

[2] = test system: Huh7 D12 cells (differential hepato cellular carcinoma); experiment: as above; format: cell-based; conditions: for IC50: Huh-7D12, 48 h, average of three assays, standard error ± 0.5 μM; for viability at 25 µM: Huh-7D12, measured at 25 μM after 48 h, single dose, triplicate
Description: as §1, §2

[3] = test system: NCI-H727 cells (lung carcinoma); experiment: as above; format: cell-based; conditions: Homo sapiens, NCI-H727; for IC50: 48 h, average of three assays, standard error ± 0.5 μM; for viability at 25 µM: measured at 25 μM after 48 h, single dose, triplicate, read-out: % of Survival
Description: as §1, §2

[4] = test system: HCT 116 cells (actively proliferating colorectal adenocarcinoma); experiment: as above; format: cell-based; conditions: Homo sapiens; for IC50: 48 h, average of three assays, standard error ± 0.5 μM; for viability at 25 µM: measured at 25 μM after 48 h, single dose, triplicate
Description: as §1, §2

[5] = test system: Caco 2 cells (differentiating colorectal adenocarcinoma); experiment: as above; format: cell-based; conditions: Homo sapiens; for IC50: 48 h, average of three assays, standard error ± 0.5 μM; for viability at 25 µM: measured at 25 μM after 48 h, single dose, triplicate
Description: as §1, §2

SsGSK-3α/β = experiment: protein kinase assay, [γ-33P] ATP; format: biochemical, porcine; conditions: 15 μM ATP; GS-1 substrate; >10 = inhibitory but IC50 > 10 μM
Description: Then, we evaluated the intermediates salts 6a–f and fourteen final compounds 9a–n on four protein kinases: HsCDK5-p25 (cyclin-dependant kinase 5-p25), SsGSK-3α/β (glycogen synthase kinase-3α/β) SsCK1δ/ε (Caseine kinase 1) and HsHaspin as an essential mitotic kinase. All assays were run in the presence of 15 μM of ATP and appropriate substrates. IC50 values were determined from dose-response curves. Concerning the library of the fourteen (5Z) 3-(4-arylmethylamino)butyl-5-arylidene-2-thioxo-1,3-thiazolidine-4-ones 9a–n and also the six diamines salts 6a–f, the results are given in Table 3. […] It is interesting to note that these two compounds are respectively substituted with an hydroxyl function on para-position of the 5-arylidene moiety and also with a similar bulky group (1,3-benzodioxol-5-yl for 9j and 2,3-dihydro-benzo[1,4]dioxin-6-yl for 9n) on the arylmethylamino moiety grafted on the N-3 butyl chain.
Kinase activities for each enzyme were assayed in buffer A (25 mM Tris-HCl pH 7.5, 10 mM MgCl2, 1 mM EGTA, 1 mM DTT, 50 µg/mL Heparin, BSA 0.15 mg/mL) or B (60 mM β-glycerophosphate, 30 mM p-Nitrophenylphosphate, 25 mM MOPS, 5 mM EGTA, 15 mM MgCl2, 1 mM DTT, 0.1 mM Na vanadate), with their corresponding substrates, in the presence of 15 µM [γ-^33P] ATP (3000 Ci/mmol; 10 mCi/mL) in a final volume of 30 µL. After 30 min incubation at 30 °C, the reaction was stopped by harvesting, using a FilterMate harvester (Packard, Meriden, CT, USA), onto P81 phosphocellulose papers (GE Healthcare, Velizy-Villacoublay, France) which were washed in 1% phosphoric acid. Scintillation fluid was added and the radioactivity measured in a Packard counter. Blank values were subtracted and activities calculated as pmoles of phosphate incorporated during the 30 min incubation. The activities were expressed in a percentage of the maximal activity, i.e., in the absence of inhibitors. Controls were performed with appropriate dilutions of DMSO. CK1 and Haspin peptide substrates were obtained from Proteogenix (Oberhausbergen, France).
GSK-3α/β (porcine brain, native) was assayed, as described for CDK5/p25 but in Buffer A and using a GSK-3 specific substrate (GS-1: […]pEDEEE) (pS stands for phosphorylated serine). GS-1 was synthesized by Millegen (Labege, France).

diploid skin fibroblasts = experiment: in vitro inhibition of cell proliferation / survival assay, normal cells control; format: cell-based; conditions: Skin fibroblast, Fibroblasts; for IC50: 48 h, average of three assays, standard error ± 0.5 μM; for viability at 25 µM: measured at 25 μM after 48 h, single dose, triplicate, read-out: % of Survival
Description: as §1, §2

## COc1cc(/C=C2\SC(=S)N(CCCCNCc3ccc4c(c3)OCCO4)C2=O)ccc1O [Compound 9n, (5Z)3-[4-(2,3-Dihydro-benzo[1,4]dioxin-6-ylmethylamino)butyl]-5-(4-hydroxy-3-methoxybenzylidene)-2-thioxo-1,3-thiazolidin-4-one]
HaCat keratinocyte; Homo sapiens, HaCaT
  IC50: 15 µM
HaCat keratinocyte; Homo sapiens
  viability at 25 µM: 48%
[1]
  IC50: 19 µM
  viability at 25 µM: 61%
MDA-MB231 cells
  IC50: 15 µM
  viability at 25 µM: 55%
[2]
  IC50: 15 µM
  viability at 25 µM: 41%
[3]
  IC50: 17 µM
  viability at 25 µM: 63%
[4]
  IC50: 21 µM
  viability at 25 µM: 52%
[5]
  IC50: 16 µM
  viability at 25 µM: 28%
SsGSK-3α/β
  IC50: > 10 µM
Diploid skin fibroblasts
  IC50: > 25 µM
  viability at 25 µM: 86%

## O=C1/C(=C/c2ccc3c(c2)OCO3)SC(=S)N1CCCCNCc1ccc2c(c1)OCO2 [Compound 9h, (5Z)3-[4-(1,3-Benzodioxol-5-ylmethylamino)butyl]-5-(1,3-benzodioxol-5-ylmethylene)-2-thioxo-1,3-thiazolidin-4-one]
HaCat keratinocyte; Homo sapiens, HaCaT
  IC50: 10 µM
HaCat keratinocyte; Homo sapiens
  viability at 25 µM: 10%
[1]
  IC50: 13 µM
  viability at 25 µM: 51%
MDA-MB231 cells
  IC50: 10 µM
  viability at 25 µM: 49%
[2]
  IC50: 10 µM
  viability at 25 µM: 7%
[3]
  IC50: > 25 µM
  viability at 25 µM: 43%
[4]
  IC50: 13 µM
  viability at 25 µM: 65%
[5]
  IC50: 14 µM
  viability at 25 µM: 42%
SsGSK-3α/β
  IC50: > 10 µM
Diploid skin fibroblasts
  IC50: > 25 µM
  viability at 25 µM: 80%

## O=C1/C(=C/c2ccc3c(c2)OCCO3)SC(=S)N1CCCCNCc1ccc2c(c1)OCO2 [Compound 9i, (5Z)3-[4-(1,3-Benzodioxol-5-ylmethylamino)butyl]-5-(2,3-dihydro-1,4-benzodioxin-6-ylmethylene)-2-thioxo-1,3-thiazolidin-4-one]
HaCat keratinocyte
  IC50: 8 µM
HaCat keratinocyte; Homo sapiens, HaCaT
  IC50: < 10 µM
HaCat keratinocyte; Homo sapiens
  viability at 25 µM: 6%
[1]
  IC50: 14 µM
  viability at 25 µM: 39%
MDA-MB231 cells
  IC50: 9 µM
  viability at 25 µM: 17%
[2]
  IC50: 9 µM
  viability at 25 µM: 5%
[3]
  IC50: 11 µM
  viability at 25 µM: 9%
[4]
  IC50: 14 µM
  viability at 25 µM: 8%
[5]
  IC50: 13 µM
  viability at 25 µM: 17%
SsGSK-3α/β
  IC50: > 10 µM
Diploid skin fibroblasts
  IC50: > 25 µM
  viability at 25 µM: 54%

## O=C1/C(=C/c2ccc(O)cc2)SC(=S)N1CCCCNCc1ccc2c(c1)OCO2 [Compound 9j, (5Z)3-[4-(1,3-Benzodioxol-5-ylmethylamino)butyl]-5-(4-hydroxy-benzylidene)-2-thioxo-1,3-thiazolidin-4-one]
HaCat keratinocyte; Homo sapiens, HaCaT
  IC50: 13 µM
HaCat keratinocyte; Homo sapiens
  viability at 25 µM: 21%
[1]
  IC50: 19 µM
  viability at 25 µM: 38%
MDA-MB231 cells
  IC50: 19 µM
  viability at 25 µM: 42%
[2]
  IC50: 11 µM
  viability at 25 µM: 22%
[3]
  IC50: 19 µM
  viability at 25 µM: 33%
[4]
  IC50: 22 µM
  viability at 25 µM: 40%
[5]
  IC50: 27 µM
  viability at 25 µM: 41%
SsGSK-3α/β
  IC50: > 10 µM
Diploid skin fibroblasts
  IC50: > 25 µM
  viability at 25 µM: 77%
